Key:
[1] = Cmax in Swiss albino mouse at 5 mg/kg, po measured during 0.5 to 48 hrs post dose by HPLC/MS/MS method; type: ADME, organism-based; design: dose 5 mg/kg, route oral; conditions: in vivo
[2] = Half life in Swiss albino mouse brain at 5 mg/kg, po measured during 0.5 to 48 hrs post dose by HPLC/MS/MS method; type: ADME, organism-based
[3] = molecular target: T1, Steroid 17-alpha-hydroxylase/17,20 lyase (Homo sapiens, UniProt P05093); assay: Inhibition of CYP17 lyase in human hepatocyte microsomes using 17a-hydroxypregnenolone substrate by HPLC/MS/MS method; type: ADME
T1 sequence (P05093 whole entry): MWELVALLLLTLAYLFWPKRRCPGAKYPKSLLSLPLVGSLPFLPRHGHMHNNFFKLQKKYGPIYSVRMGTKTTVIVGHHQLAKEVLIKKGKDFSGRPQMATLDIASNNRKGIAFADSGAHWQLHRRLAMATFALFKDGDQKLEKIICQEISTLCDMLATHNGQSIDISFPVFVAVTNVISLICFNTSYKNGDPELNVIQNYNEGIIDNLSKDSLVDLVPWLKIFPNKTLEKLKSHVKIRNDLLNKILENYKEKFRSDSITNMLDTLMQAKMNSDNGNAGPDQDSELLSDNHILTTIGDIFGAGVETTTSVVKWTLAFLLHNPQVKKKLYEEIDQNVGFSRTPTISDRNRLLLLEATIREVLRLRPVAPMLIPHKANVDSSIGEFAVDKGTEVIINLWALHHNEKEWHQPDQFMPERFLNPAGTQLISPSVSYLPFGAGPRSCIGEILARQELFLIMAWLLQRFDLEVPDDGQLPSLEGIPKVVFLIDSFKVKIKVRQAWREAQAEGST

Kidney = assay: Drug level in Swiss albino mouse kidney at 5 mg/kg, po after 48 hrs assessed as relative AUC (48 hrs) level relative to plasma drug level by HPLC/MS/MS method; type: ADME, organism-based; conditions: other tissue
Aromatase = molecular target: T2, Aromatase (Homo sapiens, UniProt P11511); assay: Inhibition of CYP19 in human hepatocyte microsomes using testosterone substrate by HPLC/MS/MS method; type: ADME
T2 sequence (P11511 whole entry): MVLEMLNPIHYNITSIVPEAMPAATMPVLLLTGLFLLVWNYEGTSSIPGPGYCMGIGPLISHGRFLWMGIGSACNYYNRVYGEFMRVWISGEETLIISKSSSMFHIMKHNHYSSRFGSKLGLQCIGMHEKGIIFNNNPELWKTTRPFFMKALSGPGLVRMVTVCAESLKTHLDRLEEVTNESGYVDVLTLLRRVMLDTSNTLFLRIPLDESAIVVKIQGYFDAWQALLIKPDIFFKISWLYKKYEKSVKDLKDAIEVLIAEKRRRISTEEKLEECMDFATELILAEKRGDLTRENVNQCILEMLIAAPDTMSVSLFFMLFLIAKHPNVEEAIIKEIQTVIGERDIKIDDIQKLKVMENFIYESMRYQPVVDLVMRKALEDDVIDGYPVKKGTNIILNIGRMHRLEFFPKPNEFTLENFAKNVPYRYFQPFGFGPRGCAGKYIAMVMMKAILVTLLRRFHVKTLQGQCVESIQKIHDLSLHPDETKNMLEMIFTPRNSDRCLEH

Brain = assay: Drug level in Swiss albino mouse brain at 5 mg/kg, po after 48 hrs assessed as relative AUC (48 hrs) level relative to plasma drug level by HPLC/MS/MS method; type: ADME, organism-based
[4] = molecular target: T1, Steroid 17-alpha-hydroxylase/17,20 lyase; assay: Inhibition of CYP17 hydroxylase in human hepatocyte microsomes using pregnenolone substrate by HPLC/MS/MS method; type: ADME
[5] = AUClast in Swiss albino mouse at 5 mg/kg, po measured during 0.5 to 48 hrs post dose by HPLC/MS/MS method; type: ADME, organism-based; design: dose 5 mg/kg, route oral, time 0 - last; conditions: in vivo
[6] = Half life in Swiss albino mouse lung at 5 mg/kg, po measured during 0.5 to 48 hrs post dose by HPLC/MS/MS method; type: ADME, organism-based
[7] = molecular target: T3, Cytochrome P450 11B2, mitochondrial (Homo sapiens, UniProt P19099); assay: Inhibition of CYP11B2 in human hepatocyte microsomes using deoxycorticosteroid substrate by HPLC/MS/MS method; type: ADME
T3 sequence (P19099 whole entry): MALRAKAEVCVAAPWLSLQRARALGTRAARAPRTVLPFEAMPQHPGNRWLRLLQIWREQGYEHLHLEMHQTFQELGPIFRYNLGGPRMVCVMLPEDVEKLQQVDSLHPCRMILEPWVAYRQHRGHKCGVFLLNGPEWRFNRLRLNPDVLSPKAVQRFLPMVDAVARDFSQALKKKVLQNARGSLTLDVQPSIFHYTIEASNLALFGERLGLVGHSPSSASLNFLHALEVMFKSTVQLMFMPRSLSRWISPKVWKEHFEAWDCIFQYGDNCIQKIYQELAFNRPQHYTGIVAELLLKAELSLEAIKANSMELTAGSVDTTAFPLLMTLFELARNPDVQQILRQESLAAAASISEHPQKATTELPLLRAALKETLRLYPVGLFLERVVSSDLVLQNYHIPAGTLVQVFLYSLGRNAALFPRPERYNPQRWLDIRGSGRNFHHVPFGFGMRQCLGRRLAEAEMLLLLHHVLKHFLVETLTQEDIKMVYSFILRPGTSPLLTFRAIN

Cytochrome P450 3A4 = Cytochrome P450 3A4 (Homo sapiens, UniProt P08684); assay: Inhibition of CYP3A4 in human hepatocyte microsomes using testosterone substrate by HPLC/MS/MS method; type: ADME
Chain of Cytochrome P450 3A4 (P08684 whole entry): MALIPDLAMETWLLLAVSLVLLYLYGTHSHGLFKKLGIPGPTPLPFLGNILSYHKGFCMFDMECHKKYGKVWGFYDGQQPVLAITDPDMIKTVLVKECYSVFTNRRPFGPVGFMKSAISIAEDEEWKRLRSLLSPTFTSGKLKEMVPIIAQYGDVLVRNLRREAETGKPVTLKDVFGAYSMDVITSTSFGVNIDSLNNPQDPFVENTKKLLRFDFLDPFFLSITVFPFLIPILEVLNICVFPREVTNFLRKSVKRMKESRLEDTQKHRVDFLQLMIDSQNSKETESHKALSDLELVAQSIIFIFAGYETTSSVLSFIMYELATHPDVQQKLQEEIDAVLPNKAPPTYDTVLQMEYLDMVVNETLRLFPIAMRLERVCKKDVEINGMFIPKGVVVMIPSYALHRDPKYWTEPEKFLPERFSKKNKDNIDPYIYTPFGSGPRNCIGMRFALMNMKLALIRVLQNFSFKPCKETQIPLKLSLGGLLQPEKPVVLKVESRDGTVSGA

[8] = Half life in Swiss albino mouse kidney at 5 mg/kg, po measured during 0.5 to 48 hrs post dose by HPLC/MS/MS method; type: ADME, organism-based
[9] = molecular target: Lanosterol 14-alpha demethylase (Candida albicans (strain SC5314 / ATCC MYA-2876) (Yeast), UniProt P10613); assay: Inhibition of CYP51 in Candida albicans assessed as inhibition of microbe growth incubated for 48 hrs by CLSI M27-A3 guideline based method
Chain of Lanosterol 14-alpha demethylase (P10613 whole entry): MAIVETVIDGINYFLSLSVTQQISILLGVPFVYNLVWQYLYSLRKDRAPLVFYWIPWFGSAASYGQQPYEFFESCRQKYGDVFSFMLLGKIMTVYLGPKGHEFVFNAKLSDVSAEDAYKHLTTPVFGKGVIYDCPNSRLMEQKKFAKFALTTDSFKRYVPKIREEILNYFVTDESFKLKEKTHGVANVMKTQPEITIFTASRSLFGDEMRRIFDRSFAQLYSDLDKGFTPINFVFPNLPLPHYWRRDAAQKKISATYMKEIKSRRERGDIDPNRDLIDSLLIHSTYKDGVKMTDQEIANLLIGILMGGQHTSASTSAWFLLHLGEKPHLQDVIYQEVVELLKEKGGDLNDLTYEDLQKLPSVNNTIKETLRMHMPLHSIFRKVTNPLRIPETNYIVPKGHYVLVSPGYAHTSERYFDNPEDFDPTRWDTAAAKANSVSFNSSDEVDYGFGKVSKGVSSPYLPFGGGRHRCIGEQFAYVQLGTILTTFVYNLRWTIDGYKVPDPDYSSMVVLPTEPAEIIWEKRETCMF

In the case of `N#Cc1ccc(COc2ccc(C#Cc3ccc(C(F)(F)C(O)(Cn4cnnn4)c4ccc(F)cc4F)nc3)cc2)cc1` (single isomer, unassigned; (+)), the Cmax [1] is reported as 2500 ng/mL, the half-life [2] is reported as 16 to 19 h and the IC50 [3] is reported as 38 µM. It also gave a Drug uptake (Kidney) of 268%, an IC50 (Aromatase) of over 100 µM and a Drug uptake (Brain) of 65%. The IC50 [4] was over 100 µM, the AUC(0-t) [5] was 67000 ng·h/mL and the half-life [6] was 16 to 19 h. The IC50 [7] was over 100 µM, the IC50 (Cytochrome P450 3A4) was over 200 µM and the half-life [8] was 16 to 19 h. For the same compound, the MIC50 [9] was 7.8 ng/mL.

Reference: ChEMBL document CHEMBL4052712, “Design and optimization of highly-selective, broad spectrum fungal CYP51 inhibitors” (Bioorg Med Chem Lett, 2017)
